Assay [1] concerns the target GDP-bound NRAS wild-type protein (Homo sapiens, UniProt P01111). In words: Binding to NRAS by surface plasmon resonance (SPR), Single Cycle Kinetics. To be noted: KD ratio NRAS/KRAS, SPR.
Assay [2] addresses GDP-bound HRAS wild-type protein (Homo sapiens, UniProt P01112). In words: Binding to HRAS by surface plasmon resonance (SPR), Single Cycle Kinetics. The conditions noted are these: KD ratio HRAS/KRAS, SPR.

This note sets out measurements from US20250230193A1, “CYCLIC COMPOUND HAVING SELECTIVE KRAS INHIBITORY EFFECT ON HRAS AND NRAS” (CHUGAI SEIYAKU KABUSHIKI KAISHA, priority 2022, published 2025).

Sequence of GDP-bound HRAS wild-type protein (P01112 whole entry): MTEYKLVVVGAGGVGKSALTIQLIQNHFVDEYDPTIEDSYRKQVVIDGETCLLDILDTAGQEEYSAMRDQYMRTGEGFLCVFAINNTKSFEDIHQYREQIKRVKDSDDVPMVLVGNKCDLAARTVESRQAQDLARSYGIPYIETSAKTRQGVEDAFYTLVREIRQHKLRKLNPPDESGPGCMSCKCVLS
Sequence of GDP-bound NRAS wild-type protein (P01111 whole entry): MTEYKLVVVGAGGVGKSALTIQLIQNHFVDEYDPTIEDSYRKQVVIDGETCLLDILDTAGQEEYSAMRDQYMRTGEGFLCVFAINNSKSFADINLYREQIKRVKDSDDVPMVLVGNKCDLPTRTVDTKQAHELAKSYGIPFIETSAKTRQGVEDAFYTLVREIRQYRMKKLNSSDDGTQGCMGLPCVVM

Regarding `CC[C@H](C)[C@@H]1NC(=O)[C@H](CC(C)C)N(C)C(=O)C[C@@H](C(=O)N2CCOCC2)N(C)C(=O)[C@H](C2CCCC2)N(C)C(=O)C2(CCCC2)NC(=O)[C@@H]2CCCN2C(=O)[C@H](CCc2ccc(C(F)(F)F)c(Cl)c2)NC(=O)CN(C)C(=O)[C@H](Cc2ccc(OC)cc2)N2CCCCC[C@@H](C2=O)N(C)C(=O)CN(C)C1=O` [PP0614], the “NRAS/KRAS (ratio of KD value with respect to GDP-bound NRAS wild-type protein to KD value with respect to KRAS)” value in assay [1] is “B (a compound having 3 or more and less than 10 is denoted as B)”. In addition, the “HRAS/KRAS (ratio of KD value with respect to GDP-bound HRAS wild-type protein to KD value with respect to KRAS)” value in assay [2] was “B (a compound having 3 or more and less than 10 is denoted as B)”.
Take `CC[C@H](C)[C@@H]1NC(=O)[C@H](CC(C)C)N(C)C(=O)C[C@@H](C(=O)N2CCOCC2)N(C)C(=O)[C@H](C2CCCC2)N(C)C(=O)C2(CCCC2)NC(=O)[C@@H]2CCCN2C(=O)[C@H](CCc2ccc(C(F)(F)F)c(Cl)c2)NC(=O)CN(C)C(=O)[C@H](Cc2ccc(OC(F)(F)F)cc2)N2CCCCC[C@@H](C2=O)N(C)C(=O)CN(C)C1=O` [PP0615]: the “NRAS/KRAS (ratio of KD value with respect to GDP-bound NRAS wild-type protein to KD value with respect to KRAS)” value in assay [1] is “B (a compound having 3 or more and less than 10 is denoted as B)”. The “HRAS/KRAS (ratio of KD value with respect to GDP-bound HRAS wild-type protein to KD value with respect to KRAS)” value in assay [2] was “B (a compound having 3 or more and less than 10 is denoted as B)”.
In the case of `CC[C@H](C)[C@@H]1NC(=O)[C@H](CC(C)C)N(C)C(=O)C[C@@H](C(=O)N(C)C)N(C)C(=O)[C@H](C2CCCC2)N(C)C(=O)C2(CCCC2)NC(=O)[C@@H]2CCCN2C(=O)[C@H](CCc2ccc(C(F)(F)F)c(Cl)c2)NC(=O)CN(C)C(=O)[C@H](Cc2ccc(C)cc2)N2CC=C(C)C[C@@H](C2=O)N(C)C(=O)CN(C)C1=O` [PP0620], the “NRAS/KRAS (ratio of KD value with respect to GDP-bound NRAS wild-type protein to KD value with respect to KRAS)” value in assay [1] is “C (A compound having a KD ratio of 0.1 or more and less than 3 is denoted as C)”. Also, the “HRAS/KRAS (ratio of KD value with respect to GDP-bound HRAS wild-type protein to KD value with respect to KRAS)” value in assay [2] is “C (A compound having a KD ratio of 0.1 or more and less than 3 is denoted as C)”.
On to `CC[C@H](C)[C@@H]1NC(=O)[C@H](CC(C)C)N(C)C(=O)C[C@@H](C(=O)N(C)C)N(C)C(=O)[C@H](C2CCCC2)N(C)C(=O)C2(CCCC2)NC(=O)[C@@H]2CCCN2C(=O)[C@H](CCc2ccc(C(F)(F)F)c(Cl)c2)NC(=O)CN(C)C(=O)[C@H](Cc2ccc(C(F)(F)F)cc2)N2CC=CCOC[C@H](C2=O)N(C)C(=O)CN(C)C1=O` [PP0628], for which the “NRAS/KRAS (ratio of KD value with respect to GDP-bound NRAS wild-type protein to KD value with respect to KRAS)” value in assay [1] is “C (A compound having a KD ratio of 0.1 or more and less than 3 is denoted as C)”. Moreover, in assay [2], the “HRAS/KRAS (ratio of KD value with respect to GDP-bound HRAS wild-type protein to KD value with respect to KRAS)” value was “C (A compound having a KD ratio of 0.1 or more and less than 3 is denoted as C)”.
For `CC[C@H](C)[C@@H]1NC(=O)[C@H](CC(C)C)N(C)C(=O)C[C@@H](C(=O)N(C)C)N(C)C(=O)[C@H](C2CCCC2)N(C)C(=O)C2(CCCC2)NC(=O)[C@@H]2CCCN2C(=O)[C@H](CCc2ccc(C(F)(F)F)c(Cl)c2)NC(=O)CN(C)C(=O)[C@H](Cc2ccc(C)cc2)N2CC=CCOC[C@H](C2=O)N(C)C(=O)CN(C)C1=O` [PP0629], the “NRAS/KRAS (ratio of KD value with respect to GDP-bound NRAS wild-type protein to KD value with respect to KRAS)” value in assay [1] is “B (a compound having 3 or more and less than 10 is denoted as B)”. For the same compound, the “HRAS/KRAS (ratio of KD value with respect to GDP-bound HRAS wild-type protein to KD value with respect to KRAS)” value in assay [2] was “C (A compound having a KD ratio of 0.1 or more and less than 3 is denoted as C)”.
In the case of `CCO[C@@H]1C[C@H]2C(=O)NC3(CCC3)C(=O)N(C)[C@@H](C3CCCC3)C(=O)N(CC)[C@H](C(=O)N(C)C)CC(=O)N(C)[C@@H](CC)C(=O)N[C@@H]([C@@H](C)CC)C(=O)N(C)CC(=O)N(C)[C@H]3CCCCCN(C3=O)[C@@H](Cc3ccc(C(F)(F)F)cc3)C(=O)N(C)CC(=O)N[C@@H](CCc3cc(F)c(C(F)(F)F)c(F)c3)C(=O)N2C1` [PP0633], the “NRAS/KRAS (ratio of KD value with respect to GDP-bound NRAS wild-type protein to KD value with respect to KRAS)” value in assay [1] was “B (a compound having 3 or more and less than 10 is denoted as B)”. In assay [2], the “HRAS/KRAS (ratio of KD value with respect to GDP-bound HRAS wild-type protein to KD value with respect to KRAS)” value is “B (a compound having 3 or more and less than 10 is denoted as B)”.
